Source: patent publication US20090105349A1, “ANDROGEN MODULATORS” (WARNER-LAMBERT COMPANY LLC, priority 2004, published 2009)
Substitutions are numbered along the chain they refer to. Read-outs that look alike come from different tables or passages of the source.

Legend:
[1] = test system: male Syrian hamsters (ear sebaceous glands, sebum); assay: Animal model for inhibition of sebum production (hamster ear); assay type: in vivo, Syrian hamster; details: 3 % w/v, 4 weeks; for % CE Reduction / % WE Reduction: Vehicle #1 (polyethylene glycol/transcutol/ethanol 20/20/60), topical twice daily, vs vehicle control; for % WE & CE Reduction: Vehicle #1, topical twice daily, sum of WE and CE
Description: Arch. Derm. […] This model uses male Syrian hamsters, whose ears contain sebaceous glands.
Testing for sebum inhibition was carried out in the following manner. Male Syrian hamsters aged 9 to 10 weeks were introduced into the laboratory environment and acclimated for 2 weeks prior to use in the study. Each group consisted of 5 animals and run in parallel with vehicle and positive controls. Prior to administration, a sufficient quantity each compound was dissolved in 1 mL of the vehicle identified in Table III to achieve the final concentration reported in Table Ill.
Animals were dosed topically twice daily, five days a week, for 4 weeks. Each dose consisted of 25 micro liters of vehicle control or drug. The dose was applied to the ventral surfaces of both the right and left ears. All animals were sacrificed approximately 18-24 hours after the final dose. The right ears were collected from each animal and used for sebum analysis.
The ears were prepped for HPLC analysis in the following manner. One 8 mm distal biopsy punch was taken, just above the anatomical “V” mark in the ear to normalize the sample area. The punch was pulled apart. The ventral biopsy surface (the area where the topical dose was directly applied to the sebaceous glands) was retained for testing and the dorsal surface of the biopsy punch was discarded.
Tissue samples were blown with N2 gas and stored at −80° C. under nitrogen until HPLC analysis. In addition to ear samples, an aliquot of each drug and vehicle (at least 250 ul) was also stored at −80° C. for inclusion in the HPLC analysis.
HPLC analysis was carried out on an extract of the tissue sample. Tissue samples were contacted with 3 ml of solvent (a 4:1 admixture of 2,2,4-trimethylpentane and isopropyl alcohol). The mixture was shaken for 15 minutes and stored overnight at room temperature, protected from light. The next morning 1 milliliter of water was added to the sample and shaken for 15 minutes. The sample was then centrifuged at approximately 1500 rpm for 15 minutes. Two ml of the organic phase (top layer) was transferred to a glass vial, dried at 37° C., under nitrogen, for approximately 1 hour, and then lyophilized for approximately 48 hours. The samples were then removed from the lyophilizer and each vial was reconstituted with 600 μl of solvent A (trimethylpentane/tetrahydrofuran (99:1). The samples were then recapped and vortexed for 5 minutes.
200 μl of each sample was then transferred to a pre-labeled 200 μl HPLC vial with 200 μL glass inserts. The HPLC vials were placed in the autosampler tray for the Agilent 1100 series HPLC unit. The Agilent 1100 HPLC system consisted of a thermostated autosampler, a quarternary pump, a column heater, and an A/D interface module. All components were controlled by Agilent ChemStation software. A Waters Spherisorb S3W 4.6×100 mm analytical column was maintained at 30° C. by the Agilent column heater unit. The HPLC autosampler was programmed to maintain the sample temperature at 20 C throughout the run.
10 uL of each sample was injected in triplicate into the column. Two solvents were used for the solvent gradient. Solvent A was an admixture of trimethylpentane and tetrahydrofuran (99:1). Solvent B was ethylacetate. The gradient utilized is described in the table below: […]
The Sedex 75 Evaporative Light Scattering Detector (ELSD) was operated at 45° C. with a gain of 5, and N2 pressure maintained at 3.1 bar. Analog signal obtained by the instrument was sent to the Agilent A/D interface module where it was converted to a digital output. The conversion was based on a 10000 mAU/volt set point and the data rate was set at 10 Hz (0.03 min). The resulting digital output was then feed into the Agilent ChemStation software for integration of the peak area.

[2] = test system: male C3H/HeN mice (telogen to anagen conversion); assay type: in vivo
Text: While this model is a significant improvement over the telogen conversion assay as a model for human baldness, it suffers from a number of practical disadvantages. The macaques are expensive, relatively rare, labor intensive to maintain, and require long wash out periods between testing. […] Thus, the model relates to a modification of the existing telogen conversion assay. Male C3H/HeN mice approximately 7 weeks old are utilized. These animals are also uniformly in telogen, like their female counterparts. However, once shaven, the androgens inherently present in these male mice inhibit the conversion of the hair follicles to the anagen phase. An anti-androgen will block this androgenic effect and the follicles will convert to anagen, like their female counterparts.
The compounds shown below in Table IV were submitted for further testing utilizing the modified telogen conversion assay, described above. The testing was carried out in the following manner.
Male C3H/HeN mice, 6 to 7 weeks old (Charles River Laboratories, Raleigh, N.C.) were used for the study. Fur was clipped from the dorsal region of the mice prior to initiation of the study. Only mice with pink skin, a visual indication of the telogen phase, were selected for inclusion in the study.
A second group of animals received only the vehicle to serve as a control. Treatments were applied twice daily for 4 weeks.
The hair growth response was quantified by recording, for each animal, the day on which signs of hair growth first appeared over the treated area. The first sign of anagen was the darkening of skin color as melanocytes in the follicles started to synthesize melanin in preparation for the production of pigmented hairs. […] The day on which anagen was initiated in 50% of the test animals for both the treatment group and the vehicle group is reported below in Table IV.

[3] = molecular target: T1, hAR (human androgen receptor) (Homo sapiens, UniProt P10275); assay: Competitive hAR binding assay with 3H-DHT tracer
T1 construct: made in house; host or cells: baculovirus/Sf9 insect cells (crude extract)
T1 sequence (P10275 1-920): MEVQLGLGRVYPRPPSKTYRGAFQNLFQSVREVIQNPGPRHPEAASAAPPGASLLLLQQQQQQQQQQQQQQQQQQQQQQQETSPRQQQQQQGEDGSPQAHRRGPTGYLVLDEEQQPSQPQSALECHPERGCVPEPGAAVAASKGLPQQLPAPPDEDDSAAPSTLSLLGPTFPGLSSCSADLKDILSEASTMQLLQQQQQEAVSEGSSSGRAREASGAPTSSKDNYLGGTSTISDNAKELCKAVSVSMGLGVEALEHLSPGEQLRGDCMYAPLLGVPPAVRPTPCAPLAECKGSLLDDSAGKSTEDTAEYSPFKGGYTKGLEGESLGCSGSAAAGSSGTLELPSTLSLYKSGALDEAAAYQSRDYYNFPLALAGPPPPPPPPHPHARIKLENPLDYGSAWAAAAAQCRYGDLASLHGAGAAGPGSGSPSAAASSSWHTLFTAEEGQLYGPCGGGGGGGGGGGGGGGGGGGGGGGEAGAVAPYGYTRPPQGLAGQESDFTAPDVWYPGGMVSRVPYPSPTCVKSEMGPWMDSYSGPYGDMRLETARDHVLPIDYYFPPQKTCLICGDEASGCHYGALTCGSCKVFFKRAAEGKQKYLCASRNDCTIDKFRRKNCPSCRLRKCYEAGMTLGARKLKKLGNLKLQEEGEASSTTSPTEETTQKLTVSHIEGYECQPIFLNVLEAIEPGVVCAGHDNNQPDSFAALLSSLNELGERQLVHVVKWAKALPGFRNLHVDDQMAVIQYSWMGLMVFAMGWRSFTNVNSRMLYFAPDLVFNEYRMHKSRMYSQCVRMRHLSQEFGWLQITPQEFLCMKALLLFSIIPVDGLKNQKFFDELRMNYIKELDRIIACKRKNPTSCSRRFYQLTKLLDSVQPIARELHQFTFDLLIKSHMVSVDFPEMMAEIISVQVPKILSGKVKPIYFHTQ

[4] = molecular target: T2, androgen receptor in MDA-MB453-MMTV clone 54-19 cells (Homo sapiens, UniProt P10275); assay: AR antagonist cell assay (MMTV-luciferase reporter); assay type: cell-based
T2 sequence (P10275 1-920 Q868H): T1 sequence (P10275 1-920) with Q868H

[5] = test system: spinal BMD; details: after 7 years of treatment; cited from earlier work
[6] = 1 % w/v, Vehicle #2, topical twice daily for 4 weeks
[7] = baculovirus/Sf9 hAR extract, 1 nM 3H-DHT, one hour at 4° C, mean of multiple tests, read-out: AR Binding IC50
[8] = read-out: AR Cell IC50; MDA-MB453-MMTV clone 54-19, inhibition of DHT induced luciferase, 17 hr; mean of multiple tests
[9] = MDA-MB453-MMTV clone 54-19, inhibition of DHT induced luciferase, 17 hr; mean of multiple tests; read-out: AR Cell IC50

Cc1ccccc1Oc1ccc(C#N)cc1Cl [Example 4, 3-Chloro-4-o-tolyloxy-benzonitrile]
% CE Reduction [1]: 76%
% WE Reduction [1]: 90%
% WE & CE Reduction [1]: 166%
Anagen-Trx (day on which anagen was initiated in 50% of the test animals) ([2]; 3 % w/v, Vehicle #2 (polyethylene glycol/ethanol 30/70), topical twice daily for 4 weeks): >35 days

Cc1ccccc1Oc1ccc(C#N)c(Cl)c1 [Example 7, 2-Chloro-4-o-tolyloxy-benzonitrile]
% CE Reduction [1]: 71%
% WE Reduction [1]: 87%
% WE & CE Reduction [1]: 158%
Anagen-Trx (day on which anagen was initiated in 50% of the test animals) [2, 6]: >60 days
Anagen-Trx (day on which anagen was initiated in 50% of the test animals) ([2]; 5 % w/v, Vehicle #2, topical twice daily for 4 weeks): 35 days

COc1cccc(Oc2ccc(C#N)c(C(F)(F)F)c2)c1OC [Example 91, 4-(2,3-Dimethoxy-phenoxy)-2-trifluoromethyl-benzonitrile]
IC50 [3, 7]: 272 nM
IC50 [4, 8]: 28 nM
Anagen-Trx (day on which anagen was initiated in 50% of the test animals) ([2]; mouse, in vivo): 20 days

COc1cc(F)ccc1Oc1ccc(C#N)cc1Cl [Example 29, 3-Chloro-4-(4-fluoro-2-methoxy-phenoxy)-benzonitrile]
IC50 [3, 7]: 135 nM
IC50 [4, 8]: 67 nM
Anagen-Trx (day on which anagen was initiated in 50% of the test animals) ([2]; mouse, in vivo): 25 days

NCCCC(O)(P(=O)(O)O)P(=O)(O)O [alendronate]
increase in spinal BMD [5]: ≤ 11%

N#Cc1ccc(Oc2ccccc2F)c(Cl)c1 [Example 27, 3-Chloro-4-(2-fluoro-phenoxy)-benzonitrile]
IC50 [4, 9]: 46 nM
Anagen-Trx (day on which anagen was initiated in 50% of the test animals) [2, 6]: >35 days

CCc1cccc(Oc2ccc(C#N)c(Cl)c2)c1 [Example 34, 2-Chloro-4-(3-ethyl-phenoxy)-benzonitrile]
IC50 [3, 7]: 181 nM
IC50 [4, 9]: 924 nM

COc1cc(C)ccc1Oc1ccc(C#N)c(Cl)c1 [Example 47, 2-Chloro-4-(2-methoxy-4-methyl-phenoxy)-benzonitrile]
IC50 [3]: 4 nM
IC50 [4, 9]: > 1000 nM

CCOc1cc(C)ccc1Oc1ccc(C#N)cc1Cl [Example 30, 3-Chloro-4-(2-ethoxy-4-methyl-phenoxy)-benzonitrile]
IC50 [3, 7]: 42 nM
IC50 [4, 9]: 869 nM

Cc1ccc(F)c(Oc2ccc(C#N)c(C(F)(F)F)c2)c1F [Example 118, 4-(2,6-Difluoro-3-methyl-phenoxy)-2-trifluoromethyl-benzonitrile]
IC50 [3]: 76 nM
IC50 [4, 9]: 249 nM

COc1ccccc1Oc1ccc(C#N)c(Cl)c1 [Example 42, 2-Chloro-4-(2-methoxy-phenoxy)-benzonitrile]
IC50 [3]: 2 nM
IC50 [4, 9]: 387 nM

COc1cccc(Oc2ccc(C#N)c(Cl)c2)c1 [Example 37, 2-Chloro-4-(3-methoxy-phenoxy)-benzonitrile]
IC50 [3, 7]: 114 nM
IC50 [4, 9]: 139 nM
